{"source": "patent US12435091B2", "about": "“RNA-binding protein multimerization inhibitors and methods of use thereof” (THE UAB RESEARCH FOUNDATION, priority 2020, dated 2025)", "system": "HMGB1", "assay": "nuclear/cytoplasmic localization by confocal microscopy in LPS-activated primary microglia", "format": "cell-based, mouse", "conditions": "0.5 μM for 24 hours", "method": "To assess the specificity of SRI-42127 for blocking HuR cytoplasmic translocation, the effect of SRI-42127 on cytoplasmic translocation of HMGB1 was assessed. Like HuR, HMGB1 is nuclear predominant and translocates with microglial activation. Primary microglia were treated with LPS and 0.5 μM of SRI-42127 for 24 hours. Cells were fixed and immunostained for HMGB1 and IBA1. Nuclear/cytoplasmic localization was assessed by confocal microscopy. Total HMGB1 immunofluorescence in each cell (boundaries defined by IBA1 staining), was quantified using Fiji software. The nuclear portion was determined by quantifying the amount of HMGB1 fluorescence that overlapped with DAPI fluorescence. HuR translocation was studied in parallel with the same methodology.\nIn unactivated microglia (LPS-), both HuR and HMGB1 were nuclear predominant with little to no merged signal with cytoplasmic IBA1 as depicted in FIG. 11, Panel C.", "data": [{"smiles": "CN(c1ccc2ncc(-c3ccc4cn[nH]c4c3)n2n1)C1CCOCC1", "note": "[Compound 19]", "values": [{"measurement": "HMGB1 N/C ratio", "result": "no effect"}]}]}
